Results as given in patent US11077080B2, “Use of anti-connexin agents for modulating the therapeutic effect of psychotropic drugs” (Commissariat A L'Energie Atomique Et Aux Energies …, priority 2008, dated 2021).

System: electrical activity of the prefrontal cortex
Assay: Quantitative EEG spectral analysis (FFT relative powers) in conscious rats
Type: in vivo, Wistar rats
Conditions: for increase in the relative powers in the prefrontal cortex: paroxetine 0.5 mg/kg ip alone; for actual EEG effect: MFA 0.4 mg/kg ip
Description: A group of 6 conscious Wistar rats was pre-implanted with 6 bipolar bilateral electrodes (2 frontal, 2 anterior hippocampic, 2 posterior hippocampic).
Different treatments were conducted by circular combination of 6 rats by treatment (psychotropic treatment alone, anti-connexin treatment alone, anti-connexin+psychotropic combination treatment). The injection of meclofenamic acid (Sigma) is performed by slow submeningeal injection (80 ng/kg, 4.5 pg/second) or intraperitoneally at different doses. The injection of glycyrrhetinic acid (Sigma) is performed by submeningeal injection (80 ng/kg). The injection of clozapine (Sigma) is performed intraperitoneally (0.2 mg/kg). The injection of paroxetine (Sigma) is performed intraperitoneally (0.5 mg/kg). The injection of modafinil (Cephalon) is performed intraperitoneally (125 mg/kg and 250 mg/kg).
The EEG measurements were performed on the different groups of conscious rats (previously implanted and habituated) by 2-hour recordings after injection. The spectral analysis performed by Fourier transform (FFT) makes it possible to obtain relative powers, Hertz-by-Hertz and second-by-second. The FFT data is then averaged minute-by-minute and associated with the solvent control produced the day prior to the recording under strictly identical experimental conditions. The relative spectral powers of the left and right prefrontal cortices are then averaged by 5-minute periods, averaged by groups of 12 5-minute repetitions and represented hour-by-hour.
The data obtained from the relative quantitative EEG analysis of the effects of the different drugs administered individually (psychotropic alone or anti-connexin agents alone), presented in the examples, were subjected to a statistical analysis by analysis of variance (ANOVA) with three factors: “Frequency” (by Hz), “Time” (first and second hour by 12 averaged 5-minute repetitions) and “Animal” (6 different animals for each treatment). For the combinations of psychotropic and anti-connexin agents presented in the examples, a fourth ANOVA factor was introduced: “Anti-connexin combination”. The significance threshold of the relative power modifications for a given frequency for a psychotropic drug alone with respect to the control (solvent of the psychotropic agent) or a psychotropic drug in combination with an anti-connexin with respect to the psychotropic agent administered alone (in favor of a relative power increase or a decrease) was chosen at a value of P<0.05.

[1] = diazepam 1 mg/kg ip alone, first hour

## NC(=O)C[S+]([O-])C(c1ccccc1)c1ccccc1 (stereo not drawn) [modafinil]
Modafinil 125 mg/kg ip alone, 2-5 Hz
  increase in the EEG potential / synchronization of the prefrontal cerebral activity: 120%
Modafinil 250 mg/kg ip alone, 2-5 Hz
  increase in the EEG potential / synchronization of the prefrontal cerebral activity: 300%

## CN1CCN(C2=Nc3cc(Cl)ccc3Nc3ccccc32)CC1 [clozapine]
Clozapine 0.2 mg/kg ip alone, 8-10 Hz, from first hour extending to second hour
  increase in the EEG potential / synchronization of the prefrontal cerebral activity: 200%

## COc1ccc(C(CN(C)C)C2(O)CCCCC2)cc1 (stereo not drawn) [venlafaxine]
Venlafaxine 0.16 mg/kg ip alone, first hour
  increase in power of the 8-10 Hz components: around 120%
Venlafaxine 4 mg/kg ip alone, first hour
  increase in power of the 8-10 Hz components: ~200%

## Fc1ccc([C@@H]2CCNC[C@H]2COc2ccc3c(c2)OCO3)cc1 [paroxetine]
8-10 Hz, first hour
  increase in the relative powers in the prefrontal cortex: around 200%
8-10 Hz, second hour
  increase in the relative powers in the prefrontal cortex: around 300%

## CN[C@H]1CC[C@@H](c2ccc(Cl)c(Cl)c2)c2ccccc21 [sertraline]
Sertraline 0.16 mg/kg ip alone, first hour
  increase in power of the 7-9 Hz components: around 260%
Sertraline 0.8 mg/kg ip alone, first hour
  increase in power of the 7-9 Hz components: around 260%
Sertraline 0.8 mg/kg ip alone, second hour
  increase in power of the same components at the second hour: 900%
Sertraline 4 mg/kg ip alone, first hour
  increase in power of the 7-9 Hz components: ~200%
Sertraline 4 mg/kg ip alone, second hour
  increase in power of the same components at the second hour: 450%

## CC(NC(C)(C)C)C(=O)c1cccc(Cl)c1 (stereo not drawn) [bupropion]
Bupropion 0.16 mg/kg ip alone, first hour
  increase in power of the 8-10 Hz components: around 180%
Bupropion 0.8 mg/kg ip alone, first hour
  increase in power of the 8-10 Hz components: ~450%
Bupropion 4 mg/kg ip alone, first hour
  increase in power of the 8-10 Hz components: ~280%

## CN(C)CCC[C@@]1(c2ccc(F)cc2)OCc2cc(C#N)ccc21 [escitalopram]
Escitalopram 0.8 mg/kg ip alone, first hour
  increase in power of the 6-8 Hz components: around 150%
Escitalopram 4 mg/kg ip alone, first hour
  increase in power of the 6-8 Hz components: ~200%

## CN1C(=O)CN=C(c2ccccc2)c2cc(Cl)ccc21 [diazepam]
[1]
  decrease in power of the 4-7 Hz components: around 25%
  increase in the power of the 11-30 Hz components: around 120%

## Cc1ccc(Cl)c(Nc2ccccc2C(=O)O)c1Cl [MFA, Benzoic 2-[(2,6-di-chloro-3-phenyl)amino] acid]
MFA 80 ng/kg submeningeal, 8-10 Hz, first hour extending to second hour
  increase in the EEG potential / synchronization of the prefrontal cerebral activity: 140%
First hour
  actual EEG effect: no significant modification
Second hour
  actual EEG effect: slight significant increase
MFA central administration (80 ng/kg submeningeal), second hour
  synchronization of the prefrontal cerebral activity at the second hour: decreases
MFA peripheral administration (2.45 mg/kg ip), second hour
  synchronization of the prefrontal cerebral activity at the second hour: significant increase in synchronization continues at the second hour
